These results are taken from ChEMBL document CHEMBL3600291, “Synthesis and carbonic anhydrase I, II, IX and XII inhibitory activity of sulfamates incorporating piperazinyl-ureido moieties” (Bioorg Med Chem, 2015).

A value given as a limit tells only on which side of the number the result lay.

One test concerns the target Carbonic anhydrase 12 (Homo sapiens, UniProt O43570). In words: Inhibition of human recombinant carbonic anhydrase-12 pre-incubated for 15 mins by stopped-flow CO2 hydration assay.
The target of a further test is Carbonic anhydrase 1 (Homo sapiens, UniProt P00915). The test is described as follows: Inhibition of human recombinant carbonic anhydrase-1 pre-incubated for 15 mins by stopped-flow CO2 hydration assay.
A further test concerns the target Carbonic anhydrase 9 (Homo sapiens, UniProt Q16790). The test is described as follows: Inhibition of human recombinant carbonic anhydrase-9 pre-incubated for 15 mins by stopped-flow CO2 hydration assay.
Another test has as its target Carbonic anhydrase 2 (Homo sapiens, UniProt P00918). In words: Inhibition of human recombinant carbonic anhydrase-2 pre-incubated for 15 mins by stopped-flow CO2 hydration assay.

Sequence of Carbonic anhydrase 12 (O43570 whole entry): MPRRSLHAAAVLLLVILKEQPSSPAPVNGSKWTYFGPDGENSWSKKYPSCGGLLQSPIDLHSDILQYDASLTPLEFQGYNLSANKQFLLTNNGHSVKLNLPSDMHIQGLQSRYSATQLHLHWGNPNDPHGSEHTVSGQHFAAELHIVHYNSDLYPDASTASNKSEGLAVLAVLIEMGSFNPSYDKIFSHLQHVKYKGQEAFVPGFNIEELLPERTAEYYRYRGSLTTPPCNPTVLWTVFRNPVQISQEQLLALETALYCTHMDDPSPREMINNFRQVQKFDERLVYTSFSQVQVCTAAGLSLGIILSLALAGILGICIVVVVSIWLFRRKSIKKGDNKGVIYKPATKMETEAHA
Sequence of Carbonic anhydrase 1 (P00915 whole entry): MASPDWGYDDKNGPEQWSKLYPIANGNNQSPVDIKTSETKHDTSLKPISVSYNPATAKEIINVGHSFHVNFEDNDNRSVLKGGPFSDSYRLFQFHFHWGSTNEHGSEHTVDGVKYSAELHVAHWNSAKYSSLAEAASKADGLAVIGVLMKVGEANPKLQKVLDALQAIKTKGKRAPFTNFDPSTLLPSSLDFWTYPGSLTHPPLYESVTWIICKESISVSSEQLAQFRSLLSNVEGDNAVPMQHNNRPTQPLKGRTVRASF

`NS(=O)(=O)Oc1ccc(NC(=O)N2CCN(Cc3ccccc3)CC2)cc1`: the Ki – broadly, a dissociation constant, usually derived from enzyme kinetics or from competition with a known ligand – on Carbonic anhydrase 12 came to 1 nM; on Carbonic anhydrase 1 it was 317 nM; at Carbonic anhydrase 9, 10.5 nM; at Carbonic anhydrase 2, 11.7 nM.
Taken in the same sequence, the figures for `NS(=O)(=O)Oc1ccc(NC(=O)N2CCN(c3ccccc3)CC2)cc1` were 1 nM, 897 nM, 11.1 nM and 71.9 nM.
Taken in the same sequence, the figures for `NS(=O)(=O)Oc1ccc(NC(=O)N2CCN(c3ccc(F)cc3)CC2)cc1` were 64.7 nM, 9.4 nM, 61.5 nM and 18.2 nM.
Taken in the same sequence, the figures for `NS(=O)(=O)Oc1ccc(NC(=O)N2CCN(c3ccc(Cl)cc3)CC2)cc1` were 84.5 nM, 581 nM, 10.4 nM and 16.9 nM.
Consider `Cc1cccc(N2CCN(C(=O)Nc3ccc(OS(N)(=O)=O)cc3)CC2)c1`, for which the Ki on Carbonic anhydrase 12 was found to be 35.8 nM; on Carbonic anhydrase 1, 851 nM; on Carbonic anhydrase 9, 0.91 nM; at Carbonic anhydrase 2 it was 15.9 nM.
Taken in the same sequence, the figures for `Cc1cccc(N2CCN(C(=O)Nc3ccc(OS(N)(=O)=O)cc3)CC2)c1C` were 1 nM, 63.5 nM, 32.3 nM and 11.1 nM.
The corresponding values for `COc1cccc(N2CCN(C(=O)Nc3ccc(OS(N)(=O)=O)cc3)CC2)c1` are 37 nM, 88.1 nM, 34.1 nM and 11.2 nM.
Take `COc1ccc(N2CCN(C(=O)Nc3ccc(OS(N)(=O)=O)cc3)CC2)cc1`: the Ki was 1.1 nM at Carbonic anhydrase 12, 282 nM at Carbonic anhydrase 1, 114 nM on Carbonic anhydrase 9 and 9.1 nM on Carbonic anhydrase 2.
Regarding `NS(=O)(=O)Oc1ccc(NC(=O)N2CCN(c3nccc(-c4ccc(Br)cc4)n3)CC2)cc1`, the Ki on Carbonic anhydrase 9 came out at 114 nM.
As to `NS(=O)(=O)Oc1ccc(NC(=O)N2CCN(c3nccc(-c4ccc(C(F)(F)F)cc4)n3)CC2)cc1`, at Carbonic anhydrase 9, the Ki came to 24.3 nM.
On to `NS(=O)(=O)Oc1ccc(NC(=O)N2CCN(c3nccc(-c4cc5ccccc5o4)n3)CC2)cc1`, for which the Ki on Carbonic anhydrase 12 was 1 nM; on Carbonic anhydrase 1 it was 70.2 nM; at Carbonic anhydrase 9, 6.7 nM; at Carbonic anhydrase 2, 1 nM.
Take `O=C(Nc1ccc(O)cc1)N1CCN(Cc2ccccc2)CC1`: the Ki on Carbonic anhydrase 1 was over 10000 nM; at Carbonic anhydrase 9, 113 nM.
`O=C(Nc1ccc(O)cc1)N1CCN(c2ccccc2)CC1`: the Ki at Carbonic anhydrase 9 came out at 121 nM.
As to `O=C(Nc1ccc(O)cc1)N1CCN(c2ccc(F)cc2)CC1`, on Carbonic anhydrase 9, the Ki was 36.9 nM.
For `O=C(Nc1ccc(O)cc1)N1CCN(c2ccc(Cl)cc2)CC1`, the Ki at Carbonic anhydrase 1 is over 10000 nM; at Carbonic anhydrase 9 it was 80.5 nM.
Take `Cc1cccc(N2CCN(C(=O)Nc3ccc(O)cc3)CC2)c1`: the Ki on Carbonic anhydrase 9 came to 549 nM.
